US20260041653A1, “AN HDAC INHIBITOR FOR TREATING CANCER WITH A MODIFIED STK11 ACTIVITY OR EXPRESSION” (Tango Therapeutics, Inc., priority 2022, published 2026)

Key:
[1] = Free fraction in mouse plasma; format: in vitro ADME; conditions: C57BL/6 mouse plasma
[2] = Predicted human PK; conditions: calculated from rodent and dog data
Experimental: The human PK parameters for a dose of Compound I that is predicted to be efficacious were calculated based on the data from rodent and dog studies and are presented in Table 6.

[3] = Caverage in mice with STK11-deleted MC38 tumors; format: in vivo, mouse; conditions: doses used in FIG. 12B and 12C
[4] = Stability in human liver microsomes; format: in vitro ADME; conditions: 240 minutes; HLM protein concentration 0.6 mg/ml
Experimental: (§1) Drug metabolizing enzymes involved in the biotransformation of Compound I were investigated using human liver microsomes (HLM) and recombinant enzymes. Compound I was stable in HLMs (>93% remaining after 240 minutes of incubation with HLM protein concentration at 0.6 mg/ml). CYP selective inhibitor experiments were not performed due to lack of appreciable Compound I turnover.

[5] = logD7.4; format: physicochemical; conditions: pH 7.4
[6] = system: CYP3A4/5; assay: Metabolism by recombinant human CYP3A4/5; format: in vitro ADME; conditions: read-out: terminal half life (T1/2), rh CYP3A4/5
Experimental: as §1

[7] = target: T1, HDAC1 (Homo sapiens, UniProt Q13547); assay: Cellular NanoBRET target engagement assay, HDAC1; format: cell-based; conditions: in intact cells
T1 construct: expressed in transfected cells

[8] = Solubility in hERG assay medium; format: physicochemical; conditions: aqueous buffer, kinetic from dmso stock, 0.3% DMSO, pH 6.9
Experimental: The effects of Compound I on a cloned human ether-à-go-go-related gene (hERG) potassium channels stably expressed in human embryonic kidney (HEK) 293 cells were measured using manual patch-clamp technique. Briefly, Compound I was soluble at 100 uM in 0.3% DMSO, pH 6.9. A does range-finding (DRF) assay was performed with Compound I at 3. 30, and 100 uM concentrations.

T1 sequence (Q13547 whole entry): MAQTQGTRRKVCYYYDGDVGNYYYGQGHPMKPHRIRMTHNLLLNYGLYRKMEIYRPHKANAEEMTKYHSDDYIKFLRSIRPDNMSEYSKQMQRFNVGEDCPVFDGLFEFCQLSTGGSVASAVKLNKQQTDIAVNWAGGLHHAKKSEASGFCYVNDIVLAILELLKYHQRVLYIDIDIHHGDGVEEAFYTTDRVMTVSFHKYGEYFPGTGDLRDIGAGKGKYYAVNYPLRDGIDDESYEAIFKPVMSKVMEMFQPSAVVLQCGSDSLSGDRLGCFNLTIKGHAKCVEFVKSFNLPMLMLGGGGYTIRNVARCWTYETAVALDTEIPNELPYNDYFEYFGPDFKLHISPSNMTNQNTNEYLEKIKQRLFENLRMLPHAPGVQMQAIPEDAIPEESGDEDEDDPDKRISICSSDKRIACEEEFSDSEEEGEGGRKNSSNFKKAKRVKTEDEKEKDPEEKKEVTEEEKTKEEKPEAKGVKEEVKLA

C[S@@](=N)(=O)c1ccc(C(=O)Nc2cc(-c3ccc(F)cc3)ccc2N)cc1 [Compound I, (R)—N-(4-amino-4′-fluoro-[1,1′-biphenyl]-3-yl)-4-(S-methylsulfonimidoyl)benzamide]
fraction unbound [1]: 0.101
% F [2]: 78%
MRT [2]: 9.5 h
T1/2 [2]: 6.6 h
Total AUC ([2]; dose predicted to be efficacious): 6300 ng·h/mL
Cavg, u [3]: 192 nM
Fold of HDAC1 IC50 (Caverage coverage) [3]: 3.5 fold
remaining after incubation with HLM [4]: > 93%
logD7.4 [5]: 1.9
half-life [6]: > 1 h
selectivity for HDAC1 compared to HDAC3 [7]: > 10 fold
solubility [8]: ≥ 100 µM
